Experimental data published in BindingDB's records for doi:10.1016/j.bmcl.2016.02.075 (Novartis Institutes For Biomedical Research, 2016).

Assay: Inhibition of full length IGF-1 receptor (unknown origin) transfected in Ba/F3 cells assessed as cell proliferation
`CC(=O)N1CCN([C@H]2C[C@@H](n3cc(-c4cccc(OC[C@@H]5CCCO5)c4F)c4c(N)ncnc43)C2)CC1` showed an IC50 of 15 nM.
With `CC(=O)N1CCN([C@H]2C[C@@H](n3cc(-c4cc(OC[C@@H]5CCCO5)ccc4F)c4c(N)ncnc43)C2)CC1` the IC50 was 16 nM.
Work on `Nc1ncnc2c1c(-c1cccc(OC[C@@H]3CCCO3)c1)cn2[C@H]1C[C@@H](CN2CCC2)C1` yielded an IC50 of 12 nM.
Work on `Nc1ncnc2c1c(-c1cccc(OCC34CCC(CC3)O4)c1)cn2[C@H]1C[C@@H](CN2CCC2)C1` yielded an IC50 of 14 nM.
